Values of other authors, collected in patent US8410049B2, “Methods and kits for preventing hypoglycemia” (Cebix, priority 2009, dated 2013).

Conditions: in vivo; cited from earlier work

| Substance | Peak time of effect | Onset of action [min] | Duration of activity |
| --- | --- | --- | --- |
| Lispro | around 30 minutes |  |  |
| Regular insulin |  | 30 to 60 |  |
| Lantus |  |  | up to 24 hours |
| Glargine insulin | no peak effect |  | 24 h |
| Glulisine | around 30 minutes |  |  |
| Aspart | around 30 minutes |  |  |
